The values below come from PMC8133782, “Identification of a series of hair-cell MET channel blockers that protect against aminoglycoside-induced ototoxicity” (JCI Insight, 2021).

For orientation: inhibition means the change of the read-out against control, counted positive when it falls. Read a low inhibition as a weak effect.

Structures are written as SMILES.

Holding throughout (type): cell-based
The target in assay [1] is T1, mechano-electrical transducer (MET) channel (pore subunit TMC1) (Mus musculus, UniProt Q8R4P5).
T1 construct: native MET channel in early postnatal CD-1 mouse outer hair cells
T1 sequence (Q8R4P5 1-757): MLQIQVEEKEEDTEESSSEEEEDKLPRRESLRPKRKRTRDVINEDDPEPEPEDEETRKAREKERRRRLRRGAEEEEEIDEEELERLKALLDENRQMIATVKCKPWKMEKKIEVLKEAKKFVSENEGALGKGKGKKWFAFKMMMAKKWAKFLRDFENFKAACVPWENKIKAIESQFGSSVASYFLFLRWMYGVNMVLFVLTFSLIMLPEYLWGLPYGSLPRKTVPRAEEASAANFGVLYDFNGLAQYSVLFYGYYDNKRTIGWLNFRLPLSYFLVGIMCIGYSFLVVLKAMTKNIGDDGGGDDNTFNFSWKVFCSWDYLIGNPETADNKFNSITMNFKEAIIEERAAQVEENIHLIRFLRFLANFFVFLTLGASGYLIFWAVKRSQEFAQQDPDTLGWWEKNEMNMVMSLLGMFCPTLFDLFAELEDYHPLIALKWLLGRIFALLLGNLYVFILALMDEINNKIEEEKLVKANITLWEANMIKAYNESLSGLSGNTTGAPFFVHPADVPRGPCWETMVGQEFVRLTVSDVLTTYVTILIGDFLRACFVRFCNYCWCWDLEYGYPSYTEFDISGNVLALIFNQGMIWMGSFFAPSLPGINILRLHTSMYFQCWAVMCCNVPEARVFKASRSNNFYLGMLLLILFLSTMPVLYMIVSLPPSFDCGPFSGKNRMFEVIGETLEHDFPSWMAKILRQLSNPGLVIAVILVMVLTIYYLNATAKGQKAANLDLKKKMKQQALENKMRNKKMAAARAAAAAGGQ
Kind of assay: whole-cell patch clamp of MET currents in OHCs, fractional block at […]. (In general: Patch clamp records ionic current or voltage across a cell membrane.)

The target of assay [2] is T1, mechano-electrical transducer (MET) channel (pore subunit TMC1). Kind of assay: whole-cell patch clamp of MET currents in OHCs, fractional block at […], partially reversible.
Assay [3] has the same target. Kind of assay: whole-cell patch clamp of MET currents in OHCs, fractional block at […] (approximately […]).

In turn, `O=C(CN1CCC(c2nc3ccccc3[nH]2)CC1)Nc1cccc([N+](=O)[O-])c1` [UoS-3607] returned an inhibition at 50 µM in assay [1] of roughly 70%. With `O=C(Nc1ccc(OC(F)(F)F)cc1)C1CCN(Cc2nc3ccccc3[nH]2)CC1` [UoS-8052], the inhibition at 50 µM in assay [2] was roughly 70%. For the compound `C(=C\c1ccccc1)/CN1CCC(c2nc3ccccc3[nH]2)CC1` [UoS-3606], in assay [3], the inhibition at 50 µM is roughly 80%.
